The source made the active and inactive calls. No cut-off for these calls is given here.
Experiments:
L1210 [1] = assay: Concentration required to inhibit replication of L1210 cell lines by 50% after 72 hr incubation; format: functional; details: Mus musculus, L1210, 72 h; read-out: ED50 (the source's name)
CCRF S-180 = assay: Concentration required to inhibit replication of S-180 cell lines by 50% after 72 hr incubation; format: functional; details: Mus musculus, CCRF S-180, 72 h; read-out: ED50 (the source's name)
P388 = assay: Concentration required to inhibit replication of P388 cell lines by 50% after 72 hr incubation; format: functional; details: Mus musculus, P388, 72 h; read-out: ED50 (the source's name)
CCRF-CEM [2] = assay: Concentration required to inhibit replication of CCRF-CEM cell lines by 50% after 72 hr incubation; format: functional; details: Homo sapiens, read-out: ED50 (the source's name)
L1210 [3] = assay: (§1) Average survival time includes only those mice that died prior to day 60 at 25 mg/kg; format: functional, Mus musculus
L1210 [4] = assay: (§2) Average survival time includes only those mice that died prior to day 60 at 75 mg/kg; format: functional, Mus musculus
L1210 [5] = assay: (§3) Ratio of survival time of treated to control mice at 75 mg/kg; format: functional, Mus musculus
HSV-2 = assay: Concentration required to inhibit 90% of virus yield during 24-h growth period in HSV-2 cell lines; format: functional, Human alphaherpesvirus 2
CCRF-CEM [6] = assay: Concentration required to inhibit replication of CCRF-CEM deoxycytidine kinase deficient variant CCRF-CEM(dCK-); format: functional; details: Homo sapiens, read-out: ED50 (the source's name)
L1210 [7] = assay: (§4) Ratio of survival time of treated to control mice at 50 mg/kg; format: functional, Mus musculus
L1210 [8] = assay: (§5) Average survival time includes only those mice that died prior to day 60 at 50 mg/kg; format: functional, Mus musculus
Human alphaherpesvirus 1 = assay: Concentration required to inhibit 90% of virus yield during 24-h growth period in HSV-1 cell lines; format: functional
L1210 [9] = assay: (§6) Ratio of survival time of treated to control mice at 25 mg/kg; format: functional, Mus musculus
Mus musculus [10] = assay: Death due to toxicity occurring at a maximum body weight decrease of 10 to 22% from the average post injection body weight at 25 mg/kg; 2 / 5; format: functional, organism-based; design: dose 25 mg/kg
Mus musculus [11] = assay: Long time survivors are the number mice that survived for >60 days relative to the number of treated mice at 50 mg/kg; 0 / 5; format: functional, organism-based; design: dose 50 mg/kg
Mus musculus [12] = assay: Long time survivors are the number mice that survived for >60 days relative to the number of treated mice at 75 mg/kg; 0 / 5; format: functional, organism-based; design: dose 75 mg/kg
Mus musculus [13] = assay: Death due to toxicity occurring at a maximum body weight decrease of 10 to 22% from the average post injection body weight at 75 mg/kg; 5 / 5; format: functional, organism-based; design: dose 75 mg/kg
Mus musculus [14] = assay: Death due to toxicity occurring at a maximum body weight decrease of 10 to 22% from the average post injection body weight at 50 mg/kg; 5 / 5; format: functional, organism-based; design: dose 50 mg/kg
Mus musculus [15] = assay: Long time survivors are the number mice that survived for >60 days relative to the number of treated mice 25 mg/kg; 0 / 5; format: functional, organism-based; design: dose 25 mg/kg
Mus musculus [16] = assay: as §2; format: functional
Mus musculus [17] = assay: as §1; format: functional
Mus musculus [18] = assay: as §5; format: functional
Mus musculus [19] = assay: as §3; format: functional
Mus musculus [20] = assay: as §4; format: functional
Mus musculus [21] = assay: as §6; format: functional
Mus musculus [22] = assay: T/C*100 represents the ratio of survival time of treated to control mice *100 at 75 mg/kg; format: functional
Mus musculus [23] = assay: T/C*100 represents the ratio of survival time of treated to control mice *100 at 50 mg/kg; format: functional

| SMILES | EC50 (L1210 [1]) [µM] | EC50 (CCRF S-180) [µM] | EC50 (P388) [µM] | EC50 (CCRF-CEM [2]) [µM] | ID90 (HSV-2) [µM] | EC50 (CCRF-CEM [6]) [µM] | ID90 (Human alphaherpesvirus 1) [µM] | other results |
| --- | --- | --- | --- | --- | --- | --- | --- | --- |
| C=C1[C@H](n2cc(C)c(=O)[nH]c2=O)O[C@H](CO)[C@H]1O | > 100 | > 100 | > 100 | 10 | – | – | – | – |
| C=C1[C@H](n2cc(F)c(N)nc2=O)O[C@H](CO)[C@H]1O | 1.2 | 1.5 | 0.6 | 0.05 | 5 | 330 | 50 | Average survival (days) (L1210 [3]): 24; Average survival (days) (L1210 [4]): 18.5; T/C (L1210 [5]): 243; T/C (L1210 [7]): 279; Average survival (days) (L1210 [8]): 21.2; T/C (L1210 [9]): 316 |
| C=C1C(CO)OC(n2ccc(=O)[nH]c2=O)C1O (stereo not given) | > 100 | > 100 | > 100 | > 100 | – | – | – | – |
| C=C1[C@H](n2ccc(=O)[nH]c2=O)O[C@H](CO)[C@H]1O | > 100 | > 100 | > 100 | > 100 | 50 | – | 50 | – |
| C=C1[C@H](n2cc(F)c(=O)[nH]c2=O)O[C@H](CO)[C@H]1O | 22 | 6.5 | > 100 | 30 | >250 | – | >250 | – |
| Nc1ccn([C@@H]2O[C@H](CO)[C@@H](O)[C@@H]2O)c(=O)n1 [CYTARABINE] | 0.05 | 0.2 | 0.02 | 0.006 | – | 120 | – | Toxic deaths (Mus musculus [10]): Partially active; Long-term survivors (Mus musculus [11]): inactive; Long-term survivors (Mus musculus [12]): inactive; Toxic deaths (Mus musculus [13]): Active; Toxic deaths (Mus musculus [14]): Active; Long-term survivors (Mus musculus [15]): inactive; Average survival (days) (Mus musculus [16]): 8.4; Average survival (days) (Mus musculus [17]): 19.7; Average survival (days) (Mus musculus [18]): 9.6; T/C (Mus musculus [19]): 111; T/C (Mus musculus [20]): 126; T/C (Mus musculus [21]): 258 |
| C=C1C(CO)OC(n2ccc(N)nc2=O)C1O (stereo not given) | > 100 | > 100 | > 100 | > 100 | >250 | – | >250 | – |
| C=C1C(n2ccc(N)nc2=O)O[C@H](CO)[C@@H]1O (stereo not given in full) | 0.3 | 1.5 | 0.4 | 0.03 | 5 | 77 | 26 | Average survival (days) (Mus musculus [16]): 20.8; T/C (Mus musculus [22]): 273; Average survival (days) (Mus musculus [17]): 21.6; Average survival (days) (Mus musculus [18]): 21; T/C (Mus musculus [23]): 276; T/C (Mus musculus [21]): 284 |
| C=C1[C@H](n2cc(C)c(N)nc2=O)O[C@H](CO)[C@H]1O | > 100 | > 100 | > 100 | 22 | 125 | – | 32 | – |
